Measured values: patent publication US8853353B2, “Membrane type-1 matrix metalloprotein inhibitors and uses thereof” (Angiochem, Inc., priority 2008, dated 2014)

Tests used:
[1] = system: breast adenocarcinoma cells (MDA-MB-231); conditions: breast cancer cells, 3D collagen gel
Experimental: (§1) Different tumor cell lines were incubated with the peptides and grown atop of a collagen film (2D) or within a collagen gel (3D).

[2] = system: medulloblastoma cells (DAOY); conditions: 3D collagen gel
Experimental: as §1

tumor cell lines = conditions: grown atop of a collagen film (2D)
Experimental: as §1

[3] = system: fibrosarcoma cells (HT-1080); conditions: 3D collagen gel
Experimental: as §1

[4] = system: prostate adinocarcinoma cells (PC-3); conditions: prostate cancer cells, 3D collagen gel
Experimental: as §1

[5] = system: glioblastoma cells (U-87); conditions: 3D collagen gel
Experimental: as §1

[6] = system: osteosarcoma cells (MG-63); conditions: bone cancer cells, 3D collagen gel
Experimental: as §1

[7] = system: Fibrosarcoma cells implanted subcutaneously; conditions: 10 mg/kg daily subcutaneous
Experimental: Fibrosarcoma cells were implanted subcutaneously into the flank of athymic nude mice. […] Mice were given daily subcutaneous administrations of 10 mg/kg of peptides or vehicle.

[8] = system: GST-MT1-MMP cytoplasmic tail fusion protein (GST-MT); conditions: recombinant Src kinase, ATP, western blot
Experimental: The GST-MT1-MMP cytoplasmic tail fusion protein (GST-MT) was incubated with recombinant Src kinase in the presence of ATP and the phosphorylation products were analyzed by western blotting.

In the case of “Biotin-Ahx-RQIKIWFQNRRMKWKK-RRHGTPRRLLFCQRSLLDKV [ACM-14]”, the “inhibition of 3D proliferation” value [1] is reported as “inhibits”, the “reduction of proliferation in 3D matrix” value [2] is reported as 35% and the “effect on tumor cell proliferation in 2D conditions” value (tumor cell lines) is reported as “does not affect”. The “inhibition of 3D proliferation” value [3] was “inhibits”, the “inhibition of 3D proliferation” value [4] was “inhibits” and the “reduction of proliferation in 3D matrix” value [5] was 50%. The “inhibition of 3D proliferation” value [6] was “inhibits”, the “tumors completely regressed and totally disappeared” value [7] was 17% and the “reduction of tumor growth” value ([7]; 26 days post-implantation) was 70%. For the same substance, the “inhibition of Src-mediated tyrosine phosphorylation of GST-MT” value [8] was “completely inhibited”.
In the case of “Biotin-Ahx-RQIKIWFQNRRMKWKK-TLRQRRCLPHFDSGLRKVRL [scACM-14, reference compound]”, the “reduction of proliferation in 3D matrix” value [2] is reported as “no effect”, the “reduction of proliferation in 3D matrix” value [5] is reported as “no effect” and the “inhibition of Src-mediated tyrosine phosphorylation of GST-MT” value [8] is reported as “not observed”.
